Assays:
[1] = target: T1, Lipolase (Thermomyces lanuginosus, UniProt O59952); experiment: storage stability of lipase (Lipolase activity, pNitrophenol-valerate substrate) in liquid formulations at 37° C.; type: biochemical, Thermomyces lanuginosa; conditions: Lipolase 0.4 wt %, storage at 37° C.
T1 construct: purchased Sigma-Aldrich
T1 sequence (O59952 23-291): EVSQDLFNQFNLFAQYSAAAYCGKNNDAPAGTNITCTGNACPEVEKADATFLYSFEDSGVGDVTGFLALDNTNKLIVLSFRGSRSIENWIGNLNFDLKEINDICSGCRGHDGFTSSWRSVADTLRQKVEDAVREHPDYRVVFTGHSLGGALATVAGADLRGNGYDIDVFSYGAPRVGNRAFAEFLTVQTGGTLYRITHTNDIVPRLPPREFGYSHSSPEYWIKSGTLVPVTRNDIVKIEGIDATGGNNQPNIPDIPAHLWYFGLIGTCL
Description: (§1) The storage stability of Lipase and Protease in water was assessed at 37° C.
(§2) Base test formulations were manufactured by making base formulations I to VI by mixing the components according to Table 1.
(§3) The respective salt (component (a)) or comparative compound was added, if applicable, to the respective base formulation in amounts as indicated in Table 1.
(§4) The amount of enzyme as provided in Table 1 refers to active protein. Either lipase or protease was added, depending on which enzyme activity was measured.
(§5) Lipolase® 100 L (CAS-No. 9001-62-1, EC-No. 232-619-9) was purchased from Sigma-Aldrich. Savinase® 16.0 L (CAS-No. 9014-01-1, EC-No. 232-752-2) was purchased from Sigma-Aldrich.
Lipolase activity at certain points in time as indicated in Table 2 was be determined by employing pNitrophenol-valerate (2.4 mM pNP-C5 in 100 mM Tris pH 8.0, 0.01% Triton X100) as a substrate. The absorption was measured at 20° C. every 30 seconds over 5 minutes at 405 nm. The slope (absorbance increase at 405 nm per minute) of the time dependent absorption-curve is directly proportional to the activity of the lipase.
The lipolytic activity values provided in Table 2 were calculated referring to the 100% value determined in the reference formulation at the time 0.
(§6) The nomenclature of formulations is as follows: the Roman number before the full stop characterizes the base formulation, the Arabian number the type of salt (A.# inventive salt (component (a)); C-(A.#) comparative compound). Zero (“0”): no salt, but diethylene glycol.

[2] = target: T2, Savinase (Lederbergia lenta, UniProt P29600); experiment: storage stability of protease (Savinase activity, Suc-AAPF-pNA substrate) in liquid formulations at 37° C.; type: biochemical; conditions: Savinase 16.0 L 0.5 wt %, storage at 37° C.
T2 construct: purchased Sigma-Aldrich
T2 sequence (P29600 1-269): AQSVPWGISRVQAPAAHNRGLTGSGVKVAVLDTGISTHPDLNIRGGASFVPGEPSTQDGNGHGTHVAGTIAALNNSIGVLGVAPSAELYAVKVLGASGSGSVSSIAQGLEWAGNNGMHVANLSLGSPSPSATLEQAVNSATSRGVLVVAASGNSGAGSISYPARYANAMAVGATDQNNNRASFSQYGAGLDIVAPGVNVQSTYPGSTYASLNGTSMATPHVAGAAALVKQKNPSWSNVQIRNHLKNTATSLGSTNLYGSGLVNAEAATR
Description: as §1, §2, §3, §4, §5
Savinase activity at certain points in time as indicated in Table 3 was be determined by employing Succinyl-Ala-Ala-Pro-Phe-p-nitroanilide (Suc-AAPF-pNA, short AAPF) as substrate. pNA is cleaved from the substrate molecule by proteolytic cleavage, resulting in release of yellow color of free pNA which was determined by measuring OD405. Measurement were done at 20° C.
The proteolytic activity values provided in Table 3 were calculated referring to the 100% value determined in the reference formulation at the time 0.
as §6

[3] = base formulation I., component (a) 2.5 wt %, 1 d
[4] = base formulation I., component (a) 2.5 wt %, 3 d
[5] = base formulation I., component (a) 2.5 wt %, 6 d
[6] = base formulation I., component (a) 2.5 wt %, 10 d
[7] = base formulation I., component (a) 2.5 wt %, 15 d
[8] = base formulation I., component (a) 2.5 wt %, 20 d
[9] = base formulation I., component (a) 2.5 wt %, 25 d
[10] = base formulation I., component (a) 2.5 wt %, 30 d
[11] = base formulation IV., component (a) 4.0 wt %, 1 d
[12] = base formulation IV., component (a) 4.0 wt %, 3 d
[13] = base formulation IV., component (a) 4.0 wt %, 6 d
[14] = base formulation IV., component (a) 4.0 wt %, 10 d
[15] = base formulation IV., component (a) 4.0 wt %, 15 d
[16] = base formulation IV., component (a) 4.0 wt %, 20 d
[17] = base formulation IV., component (a) 4.0 wt %, 25 d
[18] = base formulation IV., component (a) 4.0 wt %, 30 d
[19] = base formulation V., component (a) 4.0 wt %, 1 d
[20] = base formulation V., component (a) 4.0 wt %, 3 d
[21] = base formulation V., component (a) 4.0 wt %, 6 d
[22] = base formulation V., component (a) 4.0 wt %, 10 d
[23] = base formulation V., component (a) 4.0 wt %, 15 d
[24] = base formulation V., component (a) 4.0 wt %, 20 d
[25] = base formulation V., component (a) 4.0 wt %, 25 d
[26] = base formulation V., component (a) 4.0 wt %, 30 d
[27] = base formulation I., component (a) 2.5 wt %, T0

Compound: C[N+](C)(C)CCO.[Cl-] [C-(A.15), Choline chloride]
- lipase activity [1, 3]: 95%
- lipase activity [1, 4]: 80%
- lipase activity [1, 5]: 67%
- lipase activity [1, 6]: 55%
- lipase activity [1, 7]: 41%
- lipase activity [1, 8]: 32%
- lipase activity [1, 9]: 22%
- lipase activity [1, 10]: 20%
- lipase activity ([1]; base formulation II., component (a) 2.5 wt %, 1 d): 95%
- lipase activity ([1]; base formulation II., component (a) 2.5 wt %, 3 d): 82%
- lipase activity ([1]; base formulation II., component (a) 2.5 wt %, 6 d): 65%
- lipase activity ([1]; base formulation II., component (a) 2.5 wt %, 10 d): 56%
- lipase activity ([1]; base formulation II., component (a) 2.5 wt %, 15 d): 40%
- lipase activity ([1]; base formulation II., component (a) 2.5 wt %, 20 d): 33%
- lipase activity ([1]; base formulation II., component (a) 2.5 wt %, 25 d): 26%
- lipase activity ([1]; base formulation II., component (a) 2.5 wt %, 30 d): 22%
- lipase activity [1, 11]: 95%
- lipase activity [1, 12]: 82%
- lipase activity [1, 13]: 72%
- lipase activity [1, 14]: 59%
- lipase activity [1, 15]: 44%
- lipase activity [1, 16]: 36%
- lipase activity [1, 17]: 30%
- lipase activity [1, 18]: 23%
- lipase activity [1, 19]: 95%
- lipase activity [1, 20]: 86%
- lipase activity [1, 21]: 74%
- lipase activity [1, 22]: 63%
- lipase activity [1, 23]: 54%
- lipase activity [1, 24]: 41%
- lipase activity [1, 25]: 39%
- lipase activity [1, 26]: 30%
- protease activity [2, 3]: 92%
- protease activity [2, 4]: 85%
- protease activity [2, 5]: 64%
- protease activity [2, 6]: 47%
- protease activity [2, 7]: 39%
- protease activity [2, 8]: 31%
- protease activity [2, 9]: 22%
- protease activity [2, 10]: 8%
- protease activity [2, 27]: 98%
- protease activity ([2]; base formulation VI., component (a) 4.0 wt %, 1 d): 90%
- protease activity ([2]; base formulation VI., component (a) 4.0 wt %, 3 d): 84%
- protease activity ([2]; base formulation VI., component (a) 4.0 wt %, 6 d): 66%
- protease activity ([2]; base formulation VI., component (a) 4.0 wt %, 10 d): 47%
- protease activity ([2]; base formulation VI., component (a) 4.0 wt %, 15 d): 36%
- protease activity ([2]; base formulation VI., component (a) 4.0 wt %, 20 d): 29%
- protease activity ([2]; base formulation VI., component (a) 4.0 wt %, 25 d): 20%
- protease activity ([2]; base formulation VI., component (a) 4.0 wt %, 30 d): 10%
- protease activity ([2]; base formulation VI., component (a) 4.0 wt %, T0): 85%

Compound: C[N+](C)(C)CCO.C[N+](C)(C)CCO.O=C([O-])C(O)C(O)C(=O)[O-] (centres unmarked) [C-(A.16)]
- lipase activity [1, 3]: 90%
- lipase activity [1, 4]: 81%
- lipase activity [1, 5]: 68%
- lipase activity [1, 6]: 51%
- lipase activity [1, 7]: 40%
- lipase activity [1, 8]: 34%
- lipase activity [1, 9]: 25%
- lipase activity [1, 10]: 24%
- lipase activity [1, 27]: 95%
- lipase activity [1, 11]: 90%
- lipase activity [1, 12]: 81%
- lipase activity [1, 13]: 67%
- lipase activity [1, 14]: 55%
- lipase activity [1, 15]: 41%
- lipase activity [1, 16]: 34%
- lipase activity [1, 17]: 28%
- lipase activity [1, 18]: 25%
- lipase activity ([1]; base formulation IV., component (a) 4.0 wt %, T0): 95%
- lipase activity [1, 19]: 92%
- lipase activity [1, 20]: 85%
- lipase activity [1, 21]: 70%
- lipase activity [1, 22]: 65%
- lipase activity [1, 23]: 58%
- lipase activity [1, 24]: 49%
- lipase activity [1, 25]: 37%
- lipase activity [1, 26]: 28%
- lipase activity ([1]; base formulation V., component (a) 4.0 wt %, T0): 96%
- protease activity [2, 3]: 91%
- protease activity [2, 4]: 84%
- protease activity [2, 5]: 66%
- protease activity [2, 6]: 49%
- protease activity [2, 7]: 38%
- protease activity [2, 8]: 30%
- protease activity [2, 9]: 23%
- protease activity [2, 10]: 10%
- protease activity [2, 27]: 98%

— US11512268B2, “Storage-stable enzyme preparations, their production and use” (BASF SE, priority 2017, dated 2022)
